Source: BigSolDB 2.1

Nc1nc2ccc(OC(F)(F)F)cc2s1
solubility (mole fraction)
Conditions	278.15 K	283.15 K	288.15 K	293.15 K	298.15 K	303.15 K	308.15 K	313.15 K	318.15 K	323.15 K
in 2-methoxyethanol	0.383	0.398	0.405	0.419	0.428	0.436	0.449	0.459	0.469	0.478
in 2-propoxyethanol	0.449	0.461	0.469	0.485	0.496	0.504	0.514	0.521	0.53	0.538
in DMAc	0.0878	0.0968	0.106	0.116	0.129	0.142	0.156	0.17	0.188	0.203
in acetone	0.371	0.379	0.387	0.401	0.414	0.425	0.437	0.449	0.464	0.477
in acetonitrile	0.156	0.176	0.197	0.216	0.245	0.267	0.302	0.336	0.365	0.387
in ethanol	0.179	0.188	0.198	0.212	0.222	0.236	0.254	0.273	0.294	0.308
in isopropyl acetate	0.331	0.341	0.351	0.361	0.376	0.386	0.395	0.411	0.43	0.443
in n-butanol	0.185	0.197	0.207	0.221	0.236	0.254	0.268	0.288	0.313	0.337
in n-pentanol	0.197	0.205	0.216	0.231	0.249	0.264	0.281	0.303	0.325	0.342
in n-pentyl acetate	0.348	0.356	0.365	0.374	0.385	0.395	0.408	0.425	0.439	0.46
in n-propanol	0.179	0.189	0.202	0.215	0.23	0.249	0.267	0.287	0.312	0.333
in n-propyl acetate	0.349	0.36	0.368	0.377	0.389	0.398	0.414	0.429	0.446	0.463
